From patent publication US20110039763A1, “TARGETED ANTIMICROBIAL MOIETIES” (C3 JIAN, INC., priority 2009, published 2011)
“Also recorded” adds a separate entry of the source. Like-named read-outs stand apart in the source and are kept apart here. Bridge positions count the residues as written; N and C are the ends. Square brackets hold non-standard residues; d marks the D form. Peptide text beside a SMILES is read from it. I, II: the chains in the order shown. Aoc = NCCCCCCCC(=O)O

Legend:
[1] = system: Mixed planktonic populations of P. aeruginosa, E. coli, S. epidermidis, and S. mutans; assay: Microbial population shift assay; type: cell-based; settings: mixed culture, 10 μM peptide, 24 h, detection limit 200 cfu/mL, FIG. 18
Description: Peptide (10 μM) or mock-treatment (1×PBS) was then added and samples were incubated at 37° C. for 24 h under anaerobic conditions (80% N2, 15% CO2, 5% H2). […] Plates were then incubated 37° C. under aerobic conditions (TH plates were incubated anaerobically) and colonies counted after 24 h to determine survivors. […] Gram stains and direct microscopic observation (from select isolated colonies) were undertaken to confirm species identity (data not shown). The detection limit of the assay was 200 cfu/mL.
We hypothesized that potential MH-STAMP dual-functionality could affect a particular set of bacteria within a mixed population, thereby promoting the outgrowth of non-targeted organisms and “shifting” the constituent makeup. To examine this possibility, defined mixed populations of planktonic cells were treated continuously and the make-up of the community examined after 24 h.

[2] = system: S. mutans; assay: Post-antibiotic effect assay, S. mutans; type: cell-based, Streptococcus mutans; settings: S. mutans monoculture; peptide 10 min, then fresh medium; FIG. 17A
Description: The activity and selectivity of MH-STAMPs after a 10 min incubation was determined by growth retardation experiments against targeted and untargeted bacteria in monocultures, as described previously (Id.). Cells from overnight cultures were diluted to ˜5×10^6 cfu/mL in MH (or TH with 1% sucrose for S. mutans), normalized by OD600 0.05-0.1 and seeded to 96-well plates. Cultures were then grown under the appropriate conditions for 2 h (3 h for S. mutans) prior to the addition of peptides for 10 min. Plates were then centrifuged at 3000×g for 5 min, the supernatants discarded, fresh medium returned (MH or TH without sucrose for S. mutans), and incubation resumed. Bacterial growth after treatment was then monitored over time by OD600.
MH-STAMP antimicrobial kinetics was ascertained utilizing a variation of the classical post-antibiotic effect assay, which measures the ability of an agent to affect an organism's growth after a short exposure period. Monocultures of MH-STAMP-targeted and untargeted organisms were exposed to M8(KH)-20, M8(BL)-20, BL(KH)-20, or unmodified BD2.20, then allowed to recover. […] Furthermore, replacement of the targeting region with a non-binding peptide abolishes specific activity.

[3] = system: E. coli; assay: MIC test (broth microdilution) / antimicrobial activity, E. coli; type: cell-based, Escherichia coli
Description: (§1) The active AMPs, STAMPs and the like can be identified and/or validated using an in vitro screening assay.
(§2) It will be appreciated that other assays as are well known in the art or that will become apparent to those having skill in the art upon review of this disclosure may also be used to identify active AMPs. Such assays include, for example, the assay described in Lehrer et al. (1988) J. Immunol.
(§3) Peptides were evaluated for basic antimicrobial activity by broth microdilution, as described previously (Eckert et al. (2006) Antimicrob Agents Chemother., 50: 3651-3657; Eckert et al. (2006) Antimicrob Agents Chemother., 50: 1480-1488). Briefly, ˜1×10^5 cfu/mL bacteria were diluted in TH (S. mutans), or Mueller-Hinton (MH) broth (all other organisms) and distributed to 96-well plates. Serially-diluted (2-fold) peptides were then added and the plates incubated at 37° C. for 18-24 h. […] All experiments were conducted 10 times.

[4] = system: microorganisms; assay: Peptide activities: targeting/binding, antimicrobial, growth or phenotype altering (Tables 7, 8); type: cell-based; settings: peptides having multiple activities
[5] = system: S. mutans; assay: MIC test (broth microdilution) / antimicrobial activity, S. mutans; type: cell-based, Streptococcus mutans
Description: as §1, §2, §3

[6] = system: S. pneumoniae; assay: MIC test / antimicrobial activity, S. pneumoniae; type: cell-based, Streptococcus pneumoniae
Description: as §1, §2, §3

[7] = system: S. epidermidis; assay: MIC test (broth microdilution) / antimicrobial activity, S. epidermidis; type: cell-based, Staphylococcus epidermidis
Description: as §1, §2, §3

[8] = system: MRSA; assay: MIC test / antimicrobial activity, MRSA; type: cell-based, Methicillin-resistant Staphylococcus aureus
Description: as §1, §2, §3

[9] = system: microorganisms; assay: Morphology, biofilm and growth disrupting peptides (Table 5); type: cell-based; set-up: key: A: Peptide aggregates; B: Less hyphal formation; Clumps; Diffuse clumps and small polyps; F: Diffuse growth; H: Thin; I: Growth inhibition; Microcolony formation; Rippled; Small polyps; Thick; W: Halo formation on top, microlonies on bottom
From the text: In certain embodiments peptides that induce alterations in phenotype or other biological activities can also be used as antimicrobial effector moieties.

[10] = system: P. aeruginosa; assay: MIC test (broth microdilution) / antimicrobial activity, P. aeruginosa; type: cell-based, Pseudomonas aeruginosa
Description: as §1, §2, §3

[11] = system: B. subtilis; assay: MIC test / antimicrobial activity, B. subtilis; type: cell-based, Bacillus subtilis
Description: as §1, §2, §3

[12] = system: T. rubrum; assay: MIC test / antimicrobial activity, T. rubrum; type: cell-based, Trichophyton rubrum
Description: as §1, §2, §3

[13] = system: A. niger; assay: MIC test / antimicrobial activity, A. niger; type: cell-based, Aspergillus niger
Description: as §1, §2, §3

[14] = system: C. jeikeium; assay: MIC test / antimicrobial activity, C. jeikeium; type: cell-based, Corynebacterium jeikeium
Description: as §1, §2, §3

[15] = system: C. albicans; assay: MIC test / antimicrobial activity, C. albicans; type: cell-based, Candida albicans
Description: as §1, §2, §3

[16] = system: microorganisms; assay: Targeting peptide binding to target microorganisms (Tables 3, 10, 12); settings: microorganism(s) the targeting peptide binds; binding in aqueous buffers varied with peptide solubility, preferably 1x PBS
[17] = system: S. mutans; assay: Anti-S. mutans STAMP activity in vitro, incl. formulations; type: cell-based, Streptococcus mutans
From the text: During the course of evaluating STAMPs, antimicrobial peptides (AMPs), and binding peptides for desired activity, it was discovered that certain formulations can attenuate or promote peptide activity, as compared to activity levels in a default buffer system (1×PBS). In some cases, 1×PBS may provide the best level of activity. Below are a number of formulations that alter, or may alter, peptide or STAMP activity. For complex buffer systems, assume the base solvent is water unless otherwise stated.
All show potent selective activity against their bacterial targets in vitro, including against biofilm forms. When tested, STAMPs have little cytotoxicity against cell lines in vitro.
It was a surprising discovery that certain anti-S. mutans STAMPs required a salt in the formulation (e.g., PBS) for optimum activity. […] Suitable PBS formulations ranged from 0.5×PBS to about 2.5×PBS with an activity optimum at about 1×PBS. Similar results are believed to obtain for other anti-S. mutans STAMPS as well as a number of other STAMPs. In certain embodiments STAMP stability in solution was improved by inclusion of fluoride in mouthrinse.

## CC[C@H](C)[C@H](NC(=O)[C@H](Cc1ccccc1)NC(=O)CCCCCCCNC(=O)[C@H](CCCCNC(=O)CNC(=O)CNC(=O)CNC(=O)[C@H](C)NC(=O)[C@H](CCC(=O)O)NC(=O)[C@H](CC(N)=O)NC(=O)[C@H](C)NC(=O)[C@H](C)NC(=O)[C@@H](N)CC(=O)O)NC(=O)CNC(=O)CNC(=O)CNC(=O)[C@H](CCCNC(=N)N)NC(=O)[C@H](CC(N)=O)NC(=O)[C@H](CC(C)C)NC(=O)[C@H](Cc1ccccc1)NC(=O)[C@H](CCCNC(=N)N)NC(=O)[C@H](Cc1ccccc1)NC(=O)[C@H](Cc1ccccc1)NC(=O)[C@@H](NC(C)=O)[C@@H](C)O)C(=O)N[C@@H](CCCNC(=N)N)C(=O)N[C@@H](CCCCN)C(=O)N[C@@H](Cc1ccccc1)C(=O)N[C@@H](CC(C)C)C(=O)N[C@@H](CCCCN)C(=O)N[C@@H](CCCCN)C(=O)N[C@@H](Cc1c[nH]c2ccccc12)C(=O)N[C@@H](CC(C)C)C(=O)N[C@@H](CC(C)C)C(N)=O [M8(BL)-20] (I: Ac-TFFRFLNRGGGK[Aoc]FIRKFLKKWLL-NH2 / II: H-DAANEAGGG; amide I:12-II:C)
[1]; input ~0.5×10^4 cfu/mL
  surviving P. aeruginosa: not affected or affected to a lesser extent
[1]; input ~2×10^4 cfu/mL
  surviving E. coli: not affected or affected to a lesser extent
  surviving S. epidermidis: not affected or affected to a lesser extent
[1]; input ~6×10^4 cfu/mL
  surviving S. mutans: greatly reduced compared to input cfu/mL
[2]
  growth after treatment (culture recovery, OD600): effectively retarded

## FESKILNASKELDKEKKVNTALSFNSHQDFAKAYQNGKI [PF-606]
[3]
  Organism MIC (μM): E. coli, 50 μM
[4]
  Activities: G M
[5]
  Organism MIC (μM): S. mutans, 50 μM
[6]
  Organism MIC (μM): S. pneumoniae, 50 μM
[7]; S. epidermidis
  Organism MIC (μM): S. epidermidis, 50 μM
[8]
  Organism MIC (μM): MRSA, 50 μM
[9]; C. albicans
  Organism, effect: C. albicans (B)
[9]; MRSA
  Organism, effect: MRSA (I)
[9]; S. epidermidis
  Organism, effect: S. epidermidis (I)
[9]; S. mutans
  Organism, effect: S. mutans (I)
[9]; S. pneumoniae
  Organism, effect: S. pneumoniae (H)

## FIRKFLQKLHL [K-16]
[5]
  Organism MIC (μM): S. mutans, 8 μM
[10]; P. aeruginosa
  Organism MIC (μM): P. aeruginosa, 12.5 μM
[8]
  Organism MIC (μM): MRSA, 25 μM

## GSVIKKRRKRMAKKKHRKLLKKTRIQRRRAGK [PF-527]
[11]
  Organism MIC (μM): B. subtilis, 12.5 μM
[4]
  Activities: G B M
[12]
  Organism MIC (μM): T. rubrum, 25 μM
[13]
  Organism MIC (μM): A. niger, 50 μM
[10]
  Organism MIC (μM): P. aeruginosa, 50 μM
[7]
  Organism MIC (μM): S. epidermidis, 25 μM
[14]
  Organism MIC (μM): C. jeikeium, 6.25 μM
[8]
  Organism MIC (μM): MRSA, 50 μM
[9]; B. subtilis
  Organism, effect: B. subtilis (I)
[9]; C. albicans
  Organism, effect: C. albicans (B)
[9]; C. jeikeium
  Organism, effect: C. jeikeium (I)
[9]; C. jejuni
  Organism, effect: C. jejuni (M)
[9]; M. luteus
  Organism, effect: M. luteus (S)
[9]; MRSA
  Organism, effect: MRSA (I)
[9]; P. aeruginosa
  Organism, effect: P. aeruginosa (I)
[9]; S. epidermidis
  Organism, effect: S. epidermidis (M)
[9]; S. pneumoniae
  Organism, effect: S. pneumoniae (H)

## LSLATFAKIFMTRSNWSLKRFNRL [PF-278]
[4]
  Activities: G B M
[12]
  Organism MIC (μM): T. rubrum, 50 μM
[15]
  Organism MIC (μM): C. albicans, 50 μM
[7]; S. epidermidis
  Organism MIC (μM): S. epidermidis, 50 μM
[16]
  Target(s): M. luteus; also recorded: A. baumannii
[9]; C. albicans
  Organism, effect: C. albicans: C. albicans (B)
[9]; M. luteus
  Organism, effect: M. luteus: M. luteus (R)
[9]; S. epidermidis
  Organism, effect: S. epidermidis: S. epidermidis (I)

## MKRRRCNWCGKLFYLEEKSKEAYCCKECRKKAKKVKK [PF-307]
[11]; B. subtilis
  Organism MIC (μM): B. subtilis, 50 μM
[4]
  Activities: G B M
[12]
  Organism MIC (μM): T. rubrum, 50 μM
[15]
  Organism MIC (μM): C. albicans, 50 μM
[16]
  Target(s): S. epidermidis; also recorded: B. subtilis; also recorded: B. fragilis; also recorded: C. difficile
[9]; B. subtilis
  Organism, effect: B. subtilis: B. subtilis (H)
[9]; C. albicans
  Organism, effect: C. albicans: C. albicans (B)
[9]; S. epidermidis
  Organism, effect: S. epidermidis: S. epidermidis (T)

## TFFRLFNRSFTQALGKGGGKNLRIIRKGIHIIKKY* [C16G2]
[17]; phosphate buffered saline (PBS) formulation, 0.5×PBS to about 2.5×PBS, optimum at about 1×PBS
  STAMP activity in formulation: active
[17]; water-based salt-free buffers and nanoemulsions
  STAMP activity in formulation: substantially inactive

## TKKIELKRFVDAFVKKSYENYILERELKKLIKAINEELPTK [PF-600]
[3]
  Organism MIC (μM): E. coli, 50 μM
[4]
  Activities: G B M
[6]
  Organism MIC (μM): S. pneumoniae, 50 μM
[9]; E. coli
  Organism, effect: E. coli (H)
[9]; M. luteus
  Organism, effect: M. luteus (C)
[9]; MRSA
  Organism, effect: MRSA (M)
[9]; S. epidermidis
  Organism, effect: S. epidermidis (C)
[9]; S. mutans
  Organism, effect: S. mutans (S)
[9]; S. pneumoniae
  Organism, effect: S. pneumoniae (R)
